The structures appear in SMILES notation.

Test [1] concerns JAR. Briefly: Antiproliferative activity against human JAR cells assessed as reduction in cell viability at 10 uM by MTT assay. It counts as functional. On the technique in general: Tetrazolium dyes change colour on reduction, which living cells bring about.
Test [2] in a line: Inhibition of Cy3-labeled mouse preE-let-7f-1 miRNA binding to human LIN28A (16 to 187 residues) expressed in Escherichia coli BL21 (DE3) at 75 uM preincubated for 2 hrs followed by miRNA addition and measured after 15 mins by electrophoretic mobility shift assay relative to control.
Test [3] is described as follows: Inhibition of Cy3-labeled mouse preE-let-7f-1 miRNA binding to human LIN28A (16 to 187 residues) expressed in Escherichia coli BL21 (DE3) preincubated for 2 hrs followed by miRNA addition and measured after 15 mins by electrophoretic mobility shift assay. (In general: In EMSA bound probe runs differently from free probe, usually more slowly.)
Test [4] in a line: Inhibition of FAM-labeled mouse preE-let-7f-1 miRNA binding to human LIN28A (16 to 187 residues) expressed in Escherichia coli BL21 (DE3) by fluorescence polarization assay.
Test [5] in a line: Inhibition of FAM-labeled mouse preE-let-7f-1 miRNA binding to human LIN28A (16 to 187 residues) expressed in Escherichia coli BL21 (DE3) preincubated for 30 mins followed by miRNA addition by fluorescence polarization assay. For orientation: Polarisation of emitted light reports the rotation of a fluorescent probe.

In the case of `CCOc1cccc2c1N[C@@H](c1ccc(C(=O)O)[nH]1)[C@H]1CC=C[C@@H]21`, the inhibition at 10 µM in test [1] was determined as 23%. On to `CCOc1cccc2c1N[C@@H](c1ccc(C#N)cc1)[C@H]1CC=C[C@@H]21`, for which, in test [2], the inhibition was < 5%. Same read-out and setting: the figure for `CCOc1cccc2c1N[C@@H](c1ccc([N+](=O)[O-])cc1)[C@H]1CC=C[C@@H]21` is < 5%.

Consider `CC(=O)c1ccc2c(c1)N[C@@H](c1ccc(C(=O)O)cc1)[C@H]1CC=C[C@@H]21`, for which the inhibition in test [2] was < 5%. Turning to `CCOc1cccc2c1N[C@@H](c1ccc(C(F)(F)F)cc1)[C@H]1CC=C[C@@H]21`, the inhibition in test [2] was < 5%.

On to `CCOc1cccc2c1N[C@@H](c1cccnc1)[C@H]1CC=C[C@@H]21`, for which the inhibition in test [2] is < 5%.

`COc1cccc2c1N[C@@H](c1ccc(C(=O)O)cc1)[C@H]1CC=C[C@@H]21`: the inhibition in test [2] was < 5%. As to `CCOc1cccc2c1N[C@@H](C(=O)O)[C@H]1CC=C[C@@H]21`, the inhibition at 10 µM in test [1] was < 10%. In addition, the IC50 in test [3] came to 21.5 µM. For the same compound, the inhibition in test [2] is 86%. Take `O=C(O)c1cccc([C@@H]2Nc3c(OC(F)(F)F)cccc3[C@@H]3C=CC[C@@H]32)c1`: in test [1], the inhibition at 10 µM is 20%. As to `CCOc1cccc2c1N[C@@H](c1cccc(O)c1)[C@H]1CC=C[C@@H]21`, the inhibition in test [2] was < 5%.

`CCOc1cccc2c1N[C@@H](c1ccc(C(=O)O)cc1)[C@H]1CC=C[C@@H]21`: the IC50 in test [4] came to 50 µM; in test [3], 41.6 µM. Besides, the inhibition at 10 µM in test [1] is < 10%. In test [2], the inhibition came to 53%. As to `CCOc1cccc2c1N[C@@H](c1ccc(C(=O)OC)cc1)[C@H]1CC=C[C@@H]21`, in test [2], the inhibition is < 5%. On to `CCOc1cccc2c1N(C(C)=O)[C@@H](c1ccc(C(=O)O)cc1)[C@H]1CCCN[C@@H]21`, for which the inhibition at 10 µM in test [1] was found to be 19%. The same measure, in the same setting: the figure for `CCOc1cccc2c1N(C(C)=O)[C@@H](c1cccc(C(=O)O)c1)[C@H]1CC=C[C@@H]21` is 31%. For the compound `CCOc1cccc2c1N[C@@H](c1cccc(C(=O)O)c1)[C@H]1CC=C[C@@H]21`, the figures for the IC50 in test [5] and in test [3] were 4 µM and 21.9 µM, respectively. For the same compound, the inhibition at 10 µM in test [1] is < 10%. For the same compound, the inhibition in test [2] came to 86%.

As for `CC(=O)c1ccc2c(c1)[C@@H]1C=CC[C@@H]1[C@H](c1ccc(C(=O)O)cc1)N2`, the inhibition in test [2] was < 5%.

In the case of `CCOC(=O)[C@@H]1Nc2c(OCC)cccc2[C@@H]2C=CC[C@H]12`, in test [2], the inhibition was < 5%. Same read-out and setting: the figure for `O=C(O)c1ccc([C@@H]2Nc3c(Cl)cc(Cl)cc3[C@@H]3C=CC[C@@H]32)cc1` is 34%. On to `CC(C)Oc1cccc2c1N[C@@H](c1ccc(C(=O)O)cc1)[C@H]1CC=C[C@@H]21`, for which, in test [2], the inhibition was < 5%.

Regarding `COc1cc2c(c(OC)c1OC)[C@@H]1C=CC[C@@H]1[C@H](c1ccc(C(=O)O)cc1)N2`, the inhibition in test [2] is < 5%.

For the compound `CCOc1cccc2c1N(C(C)=O)[C@@H](c1ccc(C(=O)O)cc1)[C@H]1CCCN(C(=O)OC(C)(C)C)[C@@H]21`, the inhibition at 10 µM in test [1] worked out at 35%. As to `CCOc1cccc2c1N[C@H](c1ccc(C(=O)O)cc1)[C@@H]1CC=C[C@H]21`, the IC50 in test [4] was 40 µM.

As to `N#Cc1ccc2c(c1)[C@@H]1C=CC[C@@H]1[C@H](c1ccc(C(=O)O)cc1)N2`, the inhibition in test [2] was < 5%.

Usually inhibition stands for the relative decrease from the control value, in per cent. As a reminder, the IC50 is the point on the concentration scale where inhibition reaches its midpoint.

The values are drawn from ChEMBL document CHEMBL5154666, “Small molecules with tetrahydroquinoline-containing Povarov scaffolds as inhibitors disrupting the Protein-RNA interaction of LIN28-let-7” (Eur J Med Chem, 2022).
